The source of these data is publication PMC3707396 (Bioorganic & medicinal chemistry letters, 2013).

The subject of one series is mice. Description: In vivo tolerability study.
Series [1] concerns PC-3 cells. As to conditions: cited from earlier work.
The next series can be described thus: Kinetic solubility. The conditions noted are these: for Solubility bin (high, medium or low): kinetic solubility, ranges not printed (in reference). Type of series: physicochemical.
Series [2] in a line: Passive permeability, PAMPA Explorer Kit. Type of series: in vitro ADME. The conditions noted are these: for Log Peff: log of effective permeability, mean of n = 3; for Permeability bin (high, medium or low): ranges not printed (Ref 17).
Series [3] concerns PC-3 cells. Description: WST-1 cytotoxicity in transfected PC-3 cells. In kind it is cell-based. The conditions noted are these: Homo sapiens, PC-3, read-out: % inh WST-1 (100 μM). For orientation: Tetrazolium dyes change colour on reduction, which living cells bring about.
The next series relates to SK-Mel-147 cells. Description: WST-1 cytotoxicity in SK-Mel-147 cells. Type of series: cell-based.
A further series has as its system MKL1. The conditions noted are these: preliminary studies; cited from earlier work.
For series [4], the target named is Rho-pathway selective serum response element-luciferase reporter (SRE.L). As to conditions: read-out: IC50 (SRE.L); cited from earlier work.

The structures appear in SMILES notation.

`CC(ONC(=O)c1cc(C(F)(F)F)cc(C(F)(F)F)c1)C(=O)Nc1ccc(Cl)cc1` (stereo not drawn) [Compound 1, reference compound]: the “In vivo tolerability (toxicity)” value in the series on mice (repeated dosing at 7.5 mg/kg intraperitoneally (IP)) was “deaths observed”. The “Inhibition of invasion of PC-3 prostate cancer cells” value in the series on PC-3 cells [1] (Matrigel model of metastasis) is listed as “inhibits invasion”.

Broadly, the solubility is the dissolved amount per volume that the medium holds. As to `O=C(Nc1ccc(Cl)cc1)C1CCCN(C(=O)c2cc(C(F)(F)F)cc(C(F)(F)F)c2)C1` (stereo not drawn) [Compound 2, reference compound], in the series “Kinetic solubility”, the solubility was below 10 µg/mL and the “Solubility bin (high, medium or low)” value was “LOW”. Besides, in series [2], the “Log Peff” value is −10 ± 0.00 cm/s and the “Permeability bin (high, medium or low)” value was “LOW”. In the series on PC-3 cells [1], the “Inhibition of invasion into Matrigel by cultured PC-3 cells” value was “can inhibit invasion”.

Take `O=C(Nc1ccc(Cl)cc1)C1CCCN(C(=O)c2cccc(-c3ccco3)c2)C1` (stereo not drawn) [Compound 8a]: the inhibition at 100 µM with PC-3 cells [3] is 0%. For the same compound, the “Solubility bin (high, medium or low)” value in “Kinetic solubility” is “LOW”. In series [2], the “Log Peff” value is given as −8.3 ± 2.3 cm/s and the “Permeability bin (high, medium or low)” value is “LOW”. Moreover, in the series with SK-Mel-147 cells, the WST-1 cytotoxicity entry is “no WST-1 cytotoxicity”. The “Body weight over the course of the study” value in the series on mice (10, 20, 50 and 100 mg/kg/day IP, 5 days) is given as “Weight was maintained”. Besides, in the series on mice (10, 20, 50 and 100 mg/kg/day IP, 5 days, sacrifice on 8th day), the “Abnormality observed at dissection” value is recorded as “slight increase in liver weight”. Besides, the Tolerability in mice entry in the series on mice (5 days, up to 100 mg/kg/day IP, normal mice) is listed as “well tolerated”. Moreover, in the series with MKL1, the “Effect on MKL1 nuclear localization” value is “blocks MKL1 nuclear localization”.

Take `O=C(c1ccccc1)c1cccc(C(=O)N2CCCC(C(=O)Nc3ccc(Cl)cc3)C2)c1` (stereo not drawn) [Compound 8b]: in the series on PC-3 cells [3], the inhibition at 100 µM turned out to be 0%.

In the case of `CC(C)(C)CC(=O)Nc1cccc(C(=O)N2CCCC(C(=O)Nc3ccc(Cl)cc3)C2)c1` (stereo not drawn) [Compound 8e], in the series with PC-3 cells [3], the inhibition at 100 µM turned out to be 0%.

With `C=Cc1cccc(C(=O)N2CCCC(C(=O)Nc3ccc(Cl)cc3)C2)c1` (stereo not drawn) [Compound 8f], the inhibition at 100 µM with PC-3 cells [3] was determined as 0%.

For `Cc1cccc(C(=O)N2CCCC(C(=O)Nc3ccc(Cl)cc3)C2)c1` (stereo not drawn) [Compound 8h], the inhibition at 100 µM in the series on PC-3 cells [3] amounted to 0%.

For `CSc1cccc(C(=O)N2CCCC(C(=O)Nc3ccc(Cl)cc3)C2)c1` (stereo not drawn) [Compound 8i], in the series with PC-3 cells [3], the inhibition at 100 µM was found to be 0%.

For `O=C(Nc1ccc(Cl)cc1)C1CCCN(C(=O)c2cccc(-c3cnco3)c2)C1` (stereo not drawn) [Compound 8j], the inhibition at 100 µM in the series on PC-3 cells [3] came out at 0%.

In the case of `CCN(CC)S(=O)(=O)c1cccc(C(=O)N2CCCC(C(=O)Nc3ccc(Cl)cc3)C2)c1` (stereo not drawn) [Compound 8k], in the series on PC-3 cells [3], the inhibition at 100 µM was 0%.

As for `COC(=O)c1cccc(C(=O)N2CCCC(C(=O)Nc3ccc(Cl)cc3)C2)c1` (stereo not drawn) [Compound 8l], the inhibition at 100 µM with PC-3 cells [3] came out at 0%.

Take `Cc1nc(-c2cccc(C(=O)N3CCCC(C(=O)Nc4ccc(Cl)cc4)C3)c2)no1` (stereo not drawn) [Compound 8m]: in the series with PC-3 cells [3], the inhibition at 100 µM worked out at 0%.

Turning to `COc1cccc(C(=O)N2CCCC(C(=O)Nc3ccc(Cl)cc3)C2)c1` (stereo not drawn) [Compound 8n], the inhibition at 100 µM in the series on PC-3 cells [3] is 0%.

Turning to `COCc1cccc(C(=O)N2CCCC(C(=O)Nc3ccc(Cl)cc3)C2)c1` (stereo not drawn) [Compound 8o], the inhibition at 100 µM in the series on PC-3 cells [3] was found to be 0%.

For the compound `N#Cc1cccc(C(=O)N2CCCC(C(=O)Nc3ccc(Cl)cc3)C2)c1` (stereo not drawn) [Compound 8q], in the series on PC-3 cells [3], the inhibition at 100 µM was 0%.

Consider `O=C(Nc1ccc(Cl)cc1)C1CCCN(C(=O)c2cccc([N+](=O)[O-])c2)C1` (stereo not drawn) [Compound 8s], for which, in the series with PC-3 cells [3], the inhibition at 100 µM was found to be 0%.

Consider `O=C(Nc1ccc(Cl)cc1)C1CCCN(C(=O)c2cccc(-c3cccs3)c2)C1` (stereo not drawn) [Compound 8u], for which, in “Kinetic solubility”, the “Solubility bin (high, medium or low)” value is on record as “LOW”. Besides, in series [2], the “Log Peff” value is on record as −10 ± 0.00 cm/s and the “Permeability bin (high, medium or low)” value is listed as “LOW”.

In the case of `O=C(Nc1cccc(Oc2ccccc2)c1)C1CCCN(C(=O)c2cc(C(F)(F)F)cc(C(F)(F)F)c2)C1` (stereo not drawn) [Compound 12a], the “Solubility bin (high, medium or low)” value in “Kinetic solubility” is listed as “LOW”. Further, in series [2], the “Log Peff” value is −5.1 ± 0.40 cm/s and the “Permeability bin (high, medium or low)” value is “MOD-LOW”.

On to `O=C(Nc1cccc(Cc2ccccc2)c1)C1CCCN(C(=O)c2cc(C(F)(F)F)cc(C(F)(F)F)c2)C1` (stereo not drawn) [Compound 12b], for which the “Solubility bin (high, medium or low)” value in the series “Kinetic solubility” is “LOW”. Moreover, in series [2], the “Log Peff” value was −4.7 ± 0.05 cm/s and the “Permeability bin (high, medium or low)” value is “MOD”.

In general, IC50 refers to the concentration that gives 50% inhibition. As to `O=C(CCNC(=O)c1cc(C(F)(F)F)cc(C(F)(F)F)c1)Nc1ccc(Cl)cc1` [Compound 19, reference compound], the “Solubility bin (high, medium or low)” value in the series “Kinetic solubility” was “LOW”. Moreover, in series [2], the “Log Peff” value is −10 ± 0.00 cm/s and the “Permeability bin (high, medium or low)” value was “LOW”. The IC50 in series [4] was 38 µM.
